From US20260284208A1, “SYSTEM” (Oxford University Innovation Limited, priority 2023, published 2026)

What was measured:
[1] = molecular target: wild type IKZF3 (Homo sapiens, UniProt Q96SW2+Q9UKT9); assay: GFP degradation assay (plate reader), WT; assay type: cell-based; settings: background autofluorescence subtracted
Experimental: (§1) Jurkat cells were added to 96 well U-bottom assay plates (Falcon) at 1×10^5 cells per well and treated with compounds for 18 hours at 37° C. and 5% CO2. Cells were stained with 1 μg/mL DAPI (ThermoFisher) and acquired on a Cytoflex S (Beckman Coulter). Data was analysed using FlowJo 10.8.1 (BD).
(§2) The compounds were assessed in GFP degradation assays as described above. (Data shown in FIG. 19 was obtained using a plate reader leading to a degree of background autofluorescence). The data in FIG. 19 indicates the inflection point—at which range of concentrations the degradation occurs—for each compound. DC50 and selectivity values (following subtraction of background autofluorescence) were acquired. Compound C01 degrades both wild type IKZF3 and WEIS mutant (Q147W N149E Q150I).

[2] = molecular target: WEIS mutant (Q147W N149E Q150I) (Homo sapiens, UniProt Q96SW2+Q9UKT9, N149E/Q147W/Q150I); assay: GFP degradation assay (plate reader), WEIS; assay type: cell-based; settings: background autofluorescence subtracted
Chain of WEIS mutant (Q147W N149E Q150I) (Q9UKT9 130-189 Q147W/N149E/Q150I): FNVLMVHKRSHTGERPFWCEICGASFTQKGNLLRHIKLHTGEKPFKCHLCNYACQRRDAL
Chain of WEIS mutant (Q147W N149E Q150I) (Q96SW2 whole entry): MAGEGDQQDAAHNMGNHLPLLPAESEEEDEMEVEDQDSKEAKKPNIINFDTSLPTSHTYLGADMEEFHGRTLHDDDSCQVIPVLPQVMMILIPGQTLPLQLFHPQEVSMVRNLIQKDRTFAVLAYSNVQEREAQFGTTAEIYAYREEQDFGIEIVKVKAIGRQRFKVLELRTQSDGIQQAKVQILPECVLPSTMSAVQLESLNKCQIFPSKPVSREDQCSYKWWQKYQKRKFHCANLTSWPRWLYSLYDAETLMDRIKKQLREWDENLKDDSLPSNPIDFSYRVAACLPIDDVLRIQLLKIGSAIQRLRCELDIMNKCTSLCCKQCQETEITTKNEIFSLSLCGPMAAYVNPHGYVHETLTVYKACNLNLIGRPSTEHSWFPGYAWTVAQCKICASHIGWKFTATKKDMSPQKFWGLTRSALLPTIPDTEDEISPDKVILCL
Experimental: as §1, §2

[3] = tested on: library of 8,380 IKZF3 degrons (ZF-eGFP/mCherry reporter) in Jurkat cells; assay: Pooled library screen (FACS, NGS, limma voom LogFC of positive vs negative read counts); assay type: cell-based, human; settings: WT ZF sequence
Experimental: A library of 8,380 IKZF3 degrons was cloned into pLVX-Sprout to create the eGFP/mCherry protein degradation reporter plasmid pool. A lentivirus pool was then generated using the Lenti-X lentiviral vector production method.
Jurkat cells were transduced at a multiplicity of infection of <0.3 with the lentivirus vector library in order to maximise the number of cells with a single integration. Transductions were carried out in 6 well TC-treated cell culture dishes (Falcon) with 3×10^6 cells per well. Cells were incubated for 2 days at 37° C. and 5% CO2 before the supernatant was removed and replaced with fresh media. 6 days post-transduction, mCherry+ cells were isolated via FACS using the FACS Aria Fusion (BD) in a buffer containing PBS (Gibco), 2 mM EDTA (Gibco), 25 mM HEPES (Sigma) and 1% BSA (Sigma). 8 days later, cells were treated with DMSO or a thalidomide analog for 18 hours at 37° C. and 5% CO2. mCherry+GFPlow and NOT(mCherry+GFPlow) cells were sorted by FACS using the FACS Aria Fusion (BD). DMSO treated cells were used to set the mCherry+GFPlow gate and dead cells were excluded from sorting by staining cells with 1 μg/mL DAPI (ThermoFisher). gDNA was isolated using the Maxwell RSC 48 (Promega). gDNA from cells that were unsorted and untreated were also isolated to determine the library representation on the day of compound treatment. Throughout the screen >600× coverage of the library was maintained. 3 biological replicates were carried out with a new transduction taking place each time.
A two-step PCR was used where the first PCR (PCR1) amplified the integrated degron sequence from gDNA and the second PCR (PCR2) added Illumina adaptors and barcodes to permit multiplexing. See Supp F for PCR1 and PCR2 primers. Q5 Hot Start High-Fidelity 2× Master Mix (New England Biolabs) was used for both PCRs. Sufficient gDNA was amplified in PCR1 in order to maintain >600× coverage and amplicons were purified using solid phase reversible immobilization (SPRI) beads (Beckman Coulter). Purified PCR1 products were analysed on the Tapestation 4200 (Agilent) to confirm purity prior to proceeding to PCR2. Sufficient PCR1 product was amplified in PCR2 in order to maintain >600× coverage and amplicons were run on a 2% agarose TAE gel. Target bands were excised and purified using the NucleoSpin Gel and PCR Clean-up Kit (Machery Nagel). Amplicons were analysed on the Tapestation 4200 and quantified using Qubit dsDNA HS kit (ThermoFisher). PCR products were pooled and sequenced as paired-reads on the NovaSeq (Illumina) using a SP2 200 cycles kit (Illumina).
Count distributions, percentage of read mapping, library coverage and replicate correlation per sample were assessed for QC purposes.
To carry out the library screen, we used the same plasmid construct as in our earlier flow cytometry assays, but pooling all 8,380 mutants together into one Jurkat population, ensuring a copy number of one plasmid per cell (FIG. 4B). […] These GFP-negative cells were then separated from the remaining GFP-positive population using fluorescence activated cell sorting (FACS). These two populations were then sequenced and the relative abundance of every mutant in both populations compared to provide a log FC value for each mutant sequence. This value indicated how frequently a sequence is observed in the GFP-negative population relative to the GFP-positive population, and therefore how effective a degron it is for that particular IMID compound.

Chain of wild type IKZF3 (Q9UKT9 130-189): as the sequence (Q9UKT9 130-189 Q147W/N149E/Q150I) above, with W18Q, E20N, I21Q counted along it
Chain of wild type IKZF3 (Q96SW2 whole entry): as the sequence (Q96SW2 whole entry) above

Row | degradation of wild type IKZF3 [1] | degradation of WEIS mutant [2] | SMILES | position of the WT sequence in the volcano plot of the library screen [3]
1 | degrades | degrades | CN1CCN(c2ccc3c(c2)CN(C2CCC(=O)NC2=O)C3=O)CC1 (stereo not drawn) [C01] | 
2 |  |  | O=C1CCC(N2C(=O)c3ccccc3C2=O)C(=O)N1 (stereo not drawn) [thalidomide, reference compound] | close to the ‘hits’ region
